Among the data in PubChem BioAssay (NCI) are GI50 and TGI values, retold here.

Some test systems named below: HOP-92 NSCLC; UACC-62 melanoma; OVCAR-5 ovarian; OVCAR-4 ovarian; NCI-H23 lung; NCI/ADR-RES ovarian; RXF 393 renal; SNB-75 CNS; EKVX NSCLC; RPMI-8226 leukemia.
Holding throughout (assay): inhibition of tumour cell growth, NCI panel, 48 h

Where “and” joins values, the source holds several entries; their conditions need not be identical. Equal values may be shown once.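 Compound exposure: 48 hours, 5 concentrations, 96-well plates. GI50 is the concentration that inhibits growth by half. TGI is the concentration that stops growth completely.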 A value given as a limit tells only on which side of the number the result lay.

For `O=C(Nc1ccc(Cl)c(C(F)(F)F)c1)Nc1ccc(-c2cccnc2)cc1N1CCC(CO)CC1`, the GI50 in the assay on HOP-92 NSCLC is 2.22 µM; in the assay on UACC-62 melanoma, 2.18 µM; with OVCAR-5 ovarian it was 2.96 µM; in the assay on OVCAR-4 ovarian it was 2.97 µM; in the assay on NCI-H23 lung it was 2.78 µM; with NCI/ADR-RES ovarian, 2.85 µM. Also, the GI50 in the assay on RXF 393 renal is 1.74 µM; in the assay with SNB-75 CNS it was 2.1 µM; in the assay with EKVX NSCLC it was 1.72 µM. Besides, the TGI in the assay with HOP-92 NSCLC is 5.6 µM; in the assay on UACC-62 melanoma, 6.75 µM; in the assay on OVCAR-5 ovarian, > 100 µM; with OVCAR-4 ovarian, > 100 µM; with NCI-H23 lung, 9.55 µM; in the assay with NCI/ADR-RES ovarian it was 9.11 µM. Further, the TGI in the assay with RXF 393 renal was 3.34 µM; in the assay with SNB-75 CNS, 8.03 µM; in the assay on EKVX NSCLC, > 100 µM.
For the compound `ClCc1ccccc1Cn1cnc2nc(Cl)nc(Cl)c21`, the GI50 in the assay with UACC-62 melanoma is 0.495 µM; in the assay on OVCAR-5 ovarian, 1.71 µM; in the assay with OVCAR-4 ovarian, 1.76 µM; in the assay with NCI-H23 lung, 2.21 µM; in the assay with NCI/ADR-RES ovarian, 1.07 µM; in the assay with RPMI-8226 leukemia, 0.0318 µM. Further, the values for the GI50 with SNB-75 CNS and with EKVX NSCLC were 1.6 µM and 0.62 µM, respectively. Besides, the TGI with UACC-62 melanoma is 1.37 µM; in the assay on OVCAR-5 ovarian it was 3.65 µM; in the assay with OVCAR-4 ovarian, 4.46 µM; in the assay on NCI-H23 lung, 7.14 µM; with NCI/ADR-RES ovarian, 3.96 µM; with RPMI-8226 leukemia it was 0.272 µM. Besides, the TGI was found to be 2.94 µM with RXF 393 renal, 3.43 µM with SNB-75 CNS and 1.54 µM in the assay with EKVX NSCLC.
Turning to `CCOc1ccc(-c2nc3ccc(-c4nc5ccc(N6CCN(C)CC6)cc5[nH]4)cc3[nH]2)cc1`, the GI50 with HOP-92 NSCLC was 0.213 µM and 0.0913 µM; in the assay on UACC-62 melanoma it was 0.511 µM; in the assay on OVCAR-5 ovarian, 1.47 µM; in the assay with OVCAR-4 ovarian, 0.219 µM; in the assay on NCI-H23 lung, 0.288 µM; in the assay on NCI/ADR-RES ovarian, 5.4 µM. For the same compound, the results for the GI50 in the assay with RPMI-8226 leukemia, in the assay on SNB-75 CNS and in the assay with EKVX NSCLC were 0.0484 µM, 0.131 µM and 0.658 µM, respectively. Besides, the TGI in the assay with HOP-92 NSCLC is 2.27 µM and 1.52 µM; in the assay with UACC-62 melanoma it was 1.96 µM; in the assay on OVCAR-5 ovarian it was 3.07 µM; in the assay with OVCAR-4 ovarian, 0.838 µM; in the assay with NCI-H23 lung, 1.44 µM; in the assay on NCI/ADR-RES ovarian, > 100 µM. The TGI in the assay with RPMI-8226 leukemia was found to be 0.71 µM; in the assay with SNB-75 CNS, 0.354 µM; with EKVX NSCLC, 3.1 µM.
Consider `COc1ccc(C(=O)/C=C/c2cc(-c3ccc(OC)c(OC)c3)n[nH]2)cc1OC`, for which the GI50 with HOP-92 NSCLC is 1.97 µM; with OVCAR-5 ovarian, 1.76 µM; in the assay with OVCAR-4 ovarian, 1.92 µM; in the assay on NCI-H23 lung, 2.25 µM; with NCI/ADR-RES ovarian, 3.43 µM; with RPMI-8226 leukemia it was 0.357 µM. Besides, the GI50 was 1.45 µM with RXF 393 renal and 1.16 µM with SNB-75 CNS. Moreover, the TGI stood at 8.12 µM in the assay with HOP-92 NSCLC; 5.24 µM with OVCAR-5 ovarian; 8.15 µM in the assay with OVCAR-4 ovarian; 5.7 µM with NCI-H23 lung; 33.1 µM with NCI/ADR-RES ovarian; 2.26 µM in the assay with RPMI-8226 leukemia. The TGI was determined as 2.98 µM with RXF 393 renal and 2.96 µM with SNB-75 CNS.
`CCCCN(CCCC)P(=O)(Oc1ccccc1)Oc1ccccc1`: the GI50 was 11.9 µM in the assay on UACC-62 melanoma; 13.3 µM in the assay with OVCAR-5 ovarian; 7.35 µM in the assay on OVCAR-4 ovarian; 4.56 µM with NCI-H23 lung; 5.23 µM in the assay with NCI/ADR-RES ovarian; 5.12 µM with RPMI-8226 leukemia. Besides, the GI50 in the assay with RXF 393 renal was 1.85 µM; in the assay with SNB-75 CNS, 11.3 µM; in the assay on EKVX NSCLC it was 3.39 µM. Also, the TGI in the assay on UACC-62 melanoma worked out at 25.7 µM; in the assay on OVCAR-5 ovarian it was 28.3 µM; in the assay with OVCAR-4 ovarian, 20.5 µM; in the assay on NCI-H23 lung, 17.7 µM; in the assay with NCI/ADR-RES ovarian, 18.7 µM; with RPMI-8226 leukemia it was 26.8 µM. For the same compound, the TGI was determined as 5.97 µM in the assay on RXF 393 renal, 27.3 µM in the assay with SNB-75 CNS and 17.2 µM in the assay on EKVX NSCLC.
As to `Cc1ccc(-c2cc(C(=O)Nc3ccc(S(=O)(=O)N4CCCCC4)cc3)[nH]n2)c(O)c1`, the GI50 in the assay on HOP-92 NSCLC, in the assay on UACC-62 melanoma, with OVCAR-5 ovarian, in the assay on OVCAR-4 ovarian, with NCI-H23 lung and in the assay on NCI/ADR-RES ovarian was > 100 µM throughout. Also, the GI50 in the assay on RPMI-8226 leukemia, with RXF 393 renal and in the assay with SNB-75 CNS was > 100 µM throughout. For the same compound, the TGI in the assay on HOP-92 NSCLC, in the assay on UACC-62 melanoma, with OVCAR-5 ovarian, in the assay with OVCAR-4 ovarian, in the assay on NCI-H23 lung and with NCI/ADR-RES ovarian was > 100 µM throughout. Further, the TGI in the assay on RPMI-8226 leukemia, with RXF 393 renal and with SNB-75 CNS was > 100 µM each time.
`COC(=O)[C@H](Cc1cn(C)cn1)NC(=O)[C@H](CC(C)C)NC(=O)Nc1cc(C(F)(F)F)cc(C(F)(F)F)c1`: the GI50 in the assay on HOP-92 NSCLC, in the assay with UACC-62 melanoma, in the assay on OVCAR-5 ovarian, in the assay on OVCAR-4 ovarian, in the assay on NCI-H23 lung and in the assay with NCI/ADR-RES ovarian was > 10 µM each time. For the same compound, the GI50 in the assay on RPMI-8226 leukemia is 4.98 µM; in the assay on RXF 393 renal, 3.46 µM; with SNB-75 CNS, > 10 µM. The TGI with HOP-92 NSCLC, in the assay with UACC-62 melanoma, with OVCAR-5 ovarian, in the assay on OVCAR-4 ovarian, with NCI-H23 lung and in the assay on NCI/ADR-RES ovarian was > 10 µM in each case. Moreover, the TGI in the assay on RPMI-8226 leukemia, in the assay on RXF 393 renal and with SNB-75 CNS was > 10 µM each time.
For the compound `COc1cc(CSc2nc3ccc(Cl)cc3c(=O)n2Cc2ccccc2)cc(OC)c1OC`, the GI50 in the assay on HOP-92 NSCLC is 1.93 µM; with UACC-62 melanoma it was 2.34 µM; in the assay on OVCAR-5 ovarian it was 7 µM; in the assay on OVCAR-4 ovarian it was 4.99 µM; with NCI-H23 lung, 8.48 µM; in the assay on NCI/ADR-RES ovarian, 2.77 µM. In addition, the GI50 with RPMI-8226 leukemia is 4.27 µM; in the assay with RXF 393 renal, 3.15 µM; with SNB-75 CNS, 1.15 µM. Besides, the TGI in the assay with HOP-92 NSCLC is 9.16 µM; in the assay with UACC-62 melanoma, 25.2 µM; in the assay with OVCAR-5 ovarian, > 100 µM; in the assay on OVCAR-4 ovarian, > 100 µM; with NCI-H23 lung, > 100 µM; in the assay with NCI/ADR-RES ovarian it was > 100 µM. In addition, the figures for the TGI with RPMI-8226 leukemia, in the assay on RXF 393 renal and in the assay with SNB-75 CNS were > 100 µM, 13.4 µM and 4.09 µM, respectively.
